A value given as a limit tells only on which side of the number the result lay.

This assay deals with T1, human CRHR2-alpha (Homo sapiens, UniProt Q13324).
T1 sequence (Q13324 1-411): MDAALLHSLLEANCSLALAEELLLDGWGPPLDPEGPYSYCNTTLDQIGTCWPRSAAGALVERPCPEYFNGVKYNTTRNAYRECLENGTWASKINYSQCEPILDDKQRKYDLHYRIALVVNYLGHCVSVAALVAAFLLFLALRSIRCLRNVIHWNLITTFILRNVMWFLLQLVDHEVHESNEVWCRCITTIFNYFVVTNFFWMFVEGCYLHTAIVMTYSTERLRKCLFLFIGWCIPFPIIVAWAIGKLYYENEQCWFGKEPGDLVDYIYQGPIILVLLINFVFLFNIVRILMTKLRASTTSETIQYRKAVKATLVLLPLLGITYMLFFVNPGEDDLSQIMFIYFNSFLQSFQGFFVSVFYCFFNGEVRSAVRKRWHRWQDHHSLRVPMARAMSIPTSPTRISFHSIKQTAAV
Put plainly: cAMP functional assay for human CRHR2 (LANCE Ultra cAMP, TR-FRET). Type of assay: cell-based. The note with it: CHO-K1 cells expressing human CRHR2-alpha, agonist human urocortin2 at EC80, cAMP; read-out: IC50 against CRHR2. A digest of the protocol: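 Inhibition of agonist-driven cAMP was assessed in recombinant CHO-K1 cells at 25° C, using 30 min compound pretreatment and 30 min stimulation with EC80 human urocortin2 (CRHR2) or CRF (CRHR1). IC50 came from dose-response fitting.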
For orientation: TR-FRET usually uses a lanthanide donor and a delayed reading to cut background.
For orientation: IC50 means the midpoint of a concentration-inhibition curve. Consider `Cc1ncc(Cl)cc1C(=O)N[C@H]1CC[C@H](Cn2c(=O)n(-c3ccc(C(=O)Nc4ccccn4)nc3)c3ccccc32)CC1` [Example 174, 5-(3-(((1r,4r)-4-(5-chloro-2-methylnicotinamido)cyclo-hexyl)methyl)-2-oxo-2,3-dihydro-1H-benzo[d]imidazol-1-yl)-N-(pyridin-2-yl) picolinamide], for which the IC50 is less than 300 nM.

For the molecule `Cc1ncc(Cl)cc1C(=O)N[C@H]1CC[C@H](Cn2c(=O)n(-c3ccc(C(=O)Nc4cccnn4)nc3)c3ccccc32)CC1` [Example 175, 5-(3-(((1r,4r)-4-(5-chloro-2-methylnicotinamido)cyclo-hexyl)methyl)-2-oxo-2,3-dihydro-1H-benzo[d]imidazol-1-yl)-N-(pyridazin-3-yl) picolinamide], the IC50 is less than 300 nM.

As for `Cc1ncc(Cl)cc1C(=O)N[C@H]1CC[C@H](Cn2c(=O)n(-c3ccc(C(=O)NCc4ccon4)nc3)c3ccccc32)CC1` [Example 176, 5-(3-(((1r,4r)-4-(5-chloro-2-methylnicotinamido)cyclo-hexyl)methyl)-2-oxo-2,3-dihydro-1H-benzo[d]imidazol-1-yl)-N-(isoxazol-3-ylmethyl) picolinamide], the IC50 is less than 300 nM.

Turning to `Cc1ncc(Cl)cc1C(=O)N[C@H]1CC[C@H](Cn2c(=O)n(-c3ccc(C(=O)Nc4cccnc4)nc3)c3ccccc32)CC1` [Example 177, 5-(3-(((1r,4r)-4-(5-chloro-2-methylnicotinamido)cyclo-hexyl)methyl)-2-oxo-2,3-dihydro-1H-benzo[d]imidazol-1-yl)-N-(pyridin-3-yl) picolinamide], the IC50 was less than 300 nM.

For `Cc1ncc(Cl)cc1C(=O)N[C@H]1CC[C@H](Cn2c(=O)n(-c3ccc(C(=O)Nc4cncnc4)nc3)c3ccccc32)CC1` [Example 178, 5-(3-(((1r,4r)-4-(5-chloro-2-methylnicotinamido)cyclo-hexyl)methyl)-2-oxo-2,3-dihydro-1H-benzo[d]imidazol-1-yl)-N-(pyrimidin-5-yl) picolinamide], the IC50 is less than 300 nM.

Take `Cc1ncc(Cl)cc1C(=O)N[C@H]1CC[C@H](Cn2c(=O)n(-c3ccc(C(=O)NCc4cocn4)nc3)c3ccccc32)CC1` [Example 179, 5-(3-(((1r,4r)-(5-chloro-2-methylnicotinamido)cyclo-hexyl)methyl)-2-oxo-2,3-dihydro-1H-benzo[d]imidazol-1-yl)-N-(oxazol-4-ylmethyl) picolinamide]: the IC50 was less than 300 nM.

Take `Cc1csc(CNC(=O)c2ccc(-n3c(=O)n(C[C@H]4CC[C@H](NC(=O)c5cc(Cl)cnc5C)CC4)c4ccccc43)cn2)n1` [Example 180, 5-(3-(((1r,4r)-4-(5-chloro-2-methylnicotinamido)cyclo-hexyl)methyl)-2-oxo-2,3-dihydro-1H-benzo[d]imidazol-1-yl)-N-((4-methylthiazol-2-yl)methyl)picolinamide]: the IC50 is less than 300 nM.

Regarding `Cc1ncc(Cl)cc1C(=O)N[C@H]1CC[C@H](Cn2c(=O)n(-c3ccc(C(=O)Nc4ccncc4)nc3)c3ccccc32)CC1` [Example 181, 5-(3-(((1r,4r)-4-(5-chloro-2-methylnicotinamido)cyclo-hexyl)methyl)-2-oxo-2,3-dihydro-1H-benzo[d]imidazol-1-yl)-N-(pyridin-4-yl) picolinamide], the IC50 was less than 300 nM.

On to `CCNC(=O)c1ccc(-n2c(=O)n(C[C@H]3CC[C@H](NC(=O)c4cc(Cl)cnc4C)CC3)c3ccccc32)cn1` [Example 182, 5-(3-(((1r,4r)-4-(5-chloro-2-methylnicotinamido)cyclo-hexyl)methyl)-2-oxo-2,3-dihydro-1H-benzo[d]imidazol-1-yl)-N-ethylpicolinamide], for which the IC50 was less than 300 nM.

For `Cc1ncc(Cl)cc1C(=O)N[C@H]1CC[C@H](Cn2c(=O)n(-c3ccc(C(=O)Nc4cc[nH]n4)nc3)c3ccccc32)CC1` [Example 183, 5-(3-(((1r,4r)-4-(5-chloro-2-methylnicotinamido)cyclo-hexyl)methyl)-2-oxo-2,3-dihydro-1H-benzo[d]imidazol-1-yl)-N-(1H-pyrazol-3-yl) picolinamide], the IC50 was less than 300 nM.

In the case of `Cc1ncc(Cl)cc1C(=O)N[C@H]1CC[C@H](Cn2c(=O)n(C3Cc4ccccc4C3)c3ccccc32)CC1` [Example 184, 5-chloro-N-((1r,4r)-4-((3-(2,3-dihydro-1H-inden-2-yl)-2-oxo-2,3-dihydro-1H-benzo [d]imidazol-1-yl)methyl)cyclohexyl)-2-methyl-nicotinamide], the IC50 was less than 300 nM.

Turning to `Cc1ncc(Cl)cc1C(=O)N[C@H]1CC[C@H](Cn2c(=O)n(-c3ccc4nn(C)c(C)c4c3)c3ccccc32)CC1` [Example 185, 5-chloro-N-((1r,4r)-4-((3-(2,3-dimethyl-2H-indazol-5-yl)-2-oxo-2,3-dihydro-1H-benzo[d]imidazol-1-yl)methyl)cyclohexyl)-2-methylnicotinamide], the IC50 is less than 300 nM.

Take `Cc1ncc(Cl)cc1C(=O)N[C@H]1CC[C@H](Cn2c(=O)n(-c3ccc4nccn4c3)c3ccccc32)CC1` [Example 186, 5-chloro-N-((1r,4r)-4-((3-(imidazo[1,2-a]pyridin-6-yl)-2-oxo-2,3-dihydro-1H-benzo [d]imidazol-1-yl)methyl)cyclohexyl)-2-methylnico-tinamide]: the IC50 is less than 300 nM.

As to `Cc1ncc(Cl)cc1C(=O)N[C@H]1CC[C@H](Cn2c(=O)n(-c3cccc4ncncc34)c3ccccc32)CC1` [Example 187, 5-chloro-2-methyl-N-((1r,4r)-4-((2-oxo-3-(quinazolin-5-yl)-2,3-dihydro-1H-benzo[d]imidazol-1-yl)methyl)cyclo-hexyl)nicotinamide], the IC50 was less than 300 nM.

Regarding `CC(=O)N1Cc2ccc(-n3c(=O)n(C[C@H]4CC[C@H](NC(=O)c5cc(Cl)cnc5C)CC4)c4ccccc43)cc2C1` [Example 188, N-((1r,4r)-4-((3-(2-acetylisoindolin-5-yl)-2-oxo-2,3-dihydro-1H-benzo[d]imidazol-1-yl)methyl)cyclohexyl)-5-chloro-2-methylnicotinamide], the half-inhibitory concentration (IC50) is less than 300 nM.

Take `Cc1ncc(Cl)cc1C(=O)N[C@H]1CC[C@H](Cn2c(=O)n(-c3ccc4c(c3)CCC4)c3ncccc32)CC1` [Example 189, 5-chloro-N-((1r,4r)-4-((3-(2,3-dihydro-1H-inden-5-yl)-2-oxo-2,3-dihydro-1H-imidazo[4,5-b]pyridin-1-yl)methyl)cyclohexyl)-2-methylnicotinamide]: the IC50 was less than 300 nM.

On to `COc1ccc(-n2c(=O)n(C[C@H]3CC[C@H](NC(=O)c4cc(Cl)cnc4C)CC3)c3cccnc32)cc1` [Example 190, 5-chloro-N-((1r,4r)-4-((3-(4-methoxyphenyl)-2-oxo-2,3-dihydro-1H-imidazo [4,5-b]pyridin-1-yl)methyl)cyclohexyl)-2-methylnico-tinamide], for which the IC50 was less than 300 nM.

Regarding `Cc1ncc(Cl)cc1C(=O)N[C@H]1CC[C@H](Cn2c(=O)n(-c3ccc4c(C)nn(C)c4c3)c3ccccc32)CC1` [Example 191, 5-chloro-N-((1r,4r)-4-((3-(1,3-dimethyl-1H-indazol-6-yl)-2-oxo-2,3-dihydro-1H-benzo[d]imidazol-1-yl)methyl)cyclohexyl)-2-methylnicotinamide], the IC50 is less than 300 nM.

For the molecule `CNC(=O)c1ccc(-n2c(=O)n(C[C@H]3CC[C@H](NC(=O)c4cc(Cl)cnc4C)CC3)c3cccc(C)c32)cn1` [Example 192, 5-(3-(((1r,4r)-4-(5-chloro-2-methylnicotinamido)cyclo-hexyl)methyl)-7-methyl-2-oxo-2,3-dihydro-1H-benzo [d]imidazol-1-yl)-N-methylpicolinamide], the half-inhibitory concentration (IC50) is less than 300 nM.

Turning to `CNC(=O)c1ccc(-n2c(=O)n(C[C@H]3CC[C@H](NC(=O)c4cc(Cl)cnc4C)CC3)c3cc(OC)ccc32)cn1` [Example 194, 5-(3-(((1r,4r)-4-(5-chloro-2-methylnicotinamido)cyclohexyl)methyl)-5-methoxy-2-oxo-2,3-dihydro-1H-benzo[d]imidazol-1-yl)-N-methylpicolinamide], the IC50 was less than 300 nM.

For `Cc1ncc(Cl)cc1C(=O)N[C@H]1CC[C@H](Cn2c(=O)n(-c3ccc4c(c3)oc(=O)n4CC3CC3)c3ccccc32)CC1` [Example 195, 5-chloro-N-((1r,4r)-4-((3-(3-(cyclopropylmethyl)-2-oxo-2,3-dihydrobenzo[d]oxazol-6-yl)-2-oxo-2,3-dihydro-1H-benzo[d]imidazol-1-yl)methyl)cyclohexyl)-2-methylnicotinamide], the IC50 was less than 300 nM.

In the case of `Cc1ncc(Cl)cc1C(=O)N[C@H]1CC[C@H](Cn2c(=O)n(-c3cnc4c(c3)OCC(=O)N4C)c3ccccc32)CC1` [Example 196, 5-chloro-2-methyl-N-((1r,4r)-4-((3-(4-methyl-3-oxo-3,4-dihydro-2H-pyrido[3,2-b][1,4]oxazin-7-yl)-2-oxo-2,3-dihydro-1H-benzo[d]imidazol-1-yl)methyl)cyclohexyl) nicotinamide], the IC50 is less than 300 nM.

Turning to `Cc1ncc(Cl)cc1C(=O)N[C@H]1CC[C@H](Cn2c(=O)n(-c3ccc4c(N)n[nH]c4c3)c3ccccc32)CC1` [Example 197, N-((1r,4r)-4-((3-(3-amino-1H-indazol-6-yl)-2-oxo-2,3-dihydro-1H-benzo[d]imidazol-1-yl)methyl)cyclohexyl)-5-chloro-2-methylnicotinamide], the IC50 is less than 300 nM.
